Where “and” joins values, the source holds several entries; their conditions need not be identical. Identical values can stand only once. Entries after “also recorded” stand apart in the source; their conditions may differ. Square brackets hold non-standard residues; d marks the D form. Ends that are not written are not given here.
How the values were obtained:
histamine = experiment: Histamine induced wheal formation, peptide given at time of challenge; type: in vivo, Sprague-Dawley rats; conditions: 30 μg/kg at time of histamine challenge
Experimental: Under isoflurane anesthesia, 12 Sprague-Dawley rats' abdomens were shaved and depilated. Each rat was then injected intravenously (via internal jugular) with a dilute solution of Evans Blue (30 mg/ml in saline, 1 ml/kg bw). After 5 minutes, 6 small doses of histamine (Histamine diphosphate, 20 microliters administered intradermally) in a rectangular pattern on each rat's abdomen. After fifteen minutes, when the wheal reaches its maximum size the wheal is photographed and the blister area was determined by digital planimetry. To test the efficacy of various peptides, the peptide of interest was administered to the rats intravenously shortly after the histamine injection.
Rats received either saline, Peptide IY (30 μg/kg), Peptide ID (30 μg/kg), or Peptide IW (30 μg/kg) at time of histamine challenge.
Rats received either saline, peptide JA (30 μg/kg), peptide IZ (30 μg/kg), peptide IW (30 μg/kg) or peptide ID (30 μg/kg) at time of histamine challenge.

bilateral renal ischemia = experiment: Bilateral renal ischemia assay; type: in vivo, C57/BL6 mice
Experimental: Sixty male C57/BL6 mice (˜25 g; Charles River Laboratories) were anesthetized with ketamine (150 mg/kg) and xylazine (15 mg/kg) i.p. Each animal was placed on a homeothermic blanket set at 37° C., and after a mid-line laparotomy, the renal pedicles were clamped for 30 minutes using nontraumatic vascular clamps. Peptide ID was administered at the indicated dose via i.p. Injection at 1 minute, 6 hours, and 12 hours after reperfusion. In a single dose study, the mice received a control (PBS), 1 μg/kg of Peptide IG at 1 minute, 1 μg/kg of Peptide IG at 30 minutes, 1 μg/kg of Peptide ID at 6 hours, or 10 μg/kg of Peptide ID at 6 hours (12 mice per group). In a multiple dose study, the mice received either multiple doses of a control (PBS), 0.1 μg/kg of Peptide ID, 1 μg/kg of Peptide ID, or 10 μg/kg of Peptide ID at 1 minute, 6 hours and 12 hours into reperfusion.
Twenty-four hours later, mice were reanesthetized and blood was obtained by cardiac puncture. Plasma urea and creatine were used as indicators of renal dysfunction and aspartate aminotransferase was used as an indicator of renal injury. Data were analyzed using ANOVA followed by Dunnett's post hoc test comparison.

[1] = tested on: middle cerebral artery occlusion; experiment: Middle cerebral artery occlusion model; type: in vivo, Sprague Dawley rats; conditions: after MCAO; 2 μg/kg bw i.v. upon reperfusion, then three injections at 2-hour intervals; FIG. 5
Experimental: Sprague Dawley rats (8 per group) are subjected to the following MCAO protocol Surgery was performed in accordance with the teachings of Brines et al, 2000, PNAS USA 97:10526-10531 (hereby incorporated by reference in its entirety. Briefly, the rats are anesthetized with chloral hydrate (400 mg/kg-bw, i.p.), the carotid arteries were visualized, and the right carotid was occluded by two sutures and severed. A burr hole adjacent and rostral to the right orbit allowed visualization of the middle cerebral artery (“MCA”), which was cauterized distal to the rhinal artery. To produce a penumbra (border zone) surrounding this fixed MCA lesion, the contralateral carotid artery was occluded for 1 hour by using […] provided by a fine forceps and then re-opened.
The rats were administered saline, Peptide ID as a single i.v. dose (2 μg/kg bw), or Peptide IX, […], SEQ ID NO: 301), a scrambled version of Peptide IC, SEQ ID NO: 281, as a single Lv. dose (2 μg/kg bw) upon reperfusion, followed by three additional injections at 2-hour intervals. For assessment of injury, rats are subjected to behavioral testing or the volume of the lesion is determined by tetrazolium staining of brain sections performed 24 hours post surgery in accordance with the previously noted protocol.
The volume of the lesion was then determined by tetrazolium staining of brain sections performed 24 hours post surgery.
Rats were also tested in a foot fault behavioral protocol. Rats were tested on an elevated stainless steel grid floor 30 cm×30 cm with grid size of 30 mm according to the protocol of Markgraf et al., 1992, Brain Research 575:238-246 (hereby incorporated by reference in its entirety). When placed on the grid, a rat would attempt to move around and occasionally place a foot, rather than on the grid, through a grid opening (“foot fault”). The number of foot faults was measured for a 1 minute period.
The number of foot faults is indicative of the cognitive impairment of the rats due to the MCAO, the fewer the number of foot faults the less cognitive impairment.

pressure ulcer = experiment: Decubitus ulcer (pressure sore) assay; type: in vivo, Sprauge-Dawley rats; conditions: 30 μg/kg sc daily; compared with all groups; FIG. 20
Experimental: A decubitus ulcer (pressure sore) assay was performed on 24 adult Sprauge-Dawley rats in accordance with the disclosure of Pierce et al., Selective A2A adenosine receptor activation reduces skin pressure ulcer formation and inflammation, Am J Physiol Heart Circ Physiol 281:67-74, 2001. Briefly, a ferromagnetic steel plate was implanted under a dorsal region of the rats skin. A rectangular permanent magnet was applied to the area of the skin under which the plate was implanted in order to compress the skin between the plate and the magnet. This compression reduced the flow of blood to the skin causing ischemia. The rats were subjected to a cycle of ischemia-reperfusion (2 hours ischemia with a 0.5 hour reperfusion) for a 72-hour period. […] Daily the area of the wound on each rat was measured for a period of 12 days.

9 L gliosarcoma cells = experiment: 9 L gliosarcoma implantation model, delayed treatment; type: in vivo, CD Fisher rats; conditions: 25 nmole/kg i.p. daily starting two weeks after implantation, three weeks, FIG. 13, 14
Experimental: In accordance with the accordance with the protocol of Lampson et al. Cancer Res. 53:176-82:1993 described above, CD Fisher rats were implanted with 9 L gliosarcoma cells transfected with the LacZ gene by use of a Hamilton syringe. 100,000 cells in 10 microliters were injected into the right caudate.
ID with a short plasma half life, another receiving Peptide IW (pegylated form of Peptide IC) and the third group received saline. Peptides were given at a dose of 25 nmole/kg body weight. Three weeks later, the animals were sacrificed and serial 1 mm thick coronal sections cut through the brain and incubated with 5-bromo-4-chloro-3-indolyl-[beta]-D-galactopyranoside (Xgal). Tumor cells (containing the LacZ gene) metabolized Xgal into a dark blue stain, localizing the extent of tumor. High resolution digital images were obtained and the areas stained blue determined using planimetric methodology. Data is expressed as total area of tumor infiltration.

[2] = tested on: cisplatin induced neuropathy; experiment: Cisplatin induced peripheral neuropathy (hotplate latency); type: in vivo, rats; conditions: CDDT 2 mg/kg i.p. twice a week; peptide 0.4 μg/kg three times a week for 5 weeks; FIG. 11
Experimental: Also, CDDT is known to induce peripheral neuropathy, among other toxicities. Following the experimental design described above for renal function, the ability of Peptide IC to protect against peripheral neuropathy was also evaluated. 2 mg/kg CDDT was administered intraperitoneally, twice a week for 5 weeks. Peptide IC was simultaneously administered at a dose of 0.4 μg/kg, three times a week for 5 weeks. Neuropathy was evaluated by hotplate latency, the delay period between contact of the rat's foot to a warm surface, and the retraction of the foot.

[3] = tested on: cisplatin-induced nephropathy; experiment: Cisplatin induced nephropathy; type: in vivo, rats; conditions: CDDT 2 mg/kg i.p. twice a week; peptide 0.4 μg/kg three times a week for 5 weeks; FIG. 10
Experimental: Cancer chemotherapeutic agents such as cisplatin (CDDT) are known to induce renal injury among other toxicities. The ability of Peptide IC to protect rats form cisplatin-induced nephropathy was evaluated by administering 2 mg/kg CDDT intraperitoneally, twice a week for 5 weeks. Peptide IC was simultaneously administered at a dose of 0.4 μg/kg, three times a week for 5 weeks. Renal function was evaluated by measuring the volume of urine production.

## GLpLSEARNQSEL [Peptide IY, reference compound]
histamine; FIG. 18
  anti-inflammatory activity: did not exhibit anti-inflammatory activity
  wheal area (lesion area): about 0.6 cm^2

## GSWQRSLQDTE (Glucagon derived Peptide IH) [glucagon region]
Bilateral renal ischemia; multiple doses 1 μg/kg at 1 minute, 6 hours and 12 hours into reperfusion, FIG. 7
  creatinine, urea and aspartate aminotransferase (biochemical markers of renal dysfunction): reduction in these biochemical markers of renal dysfunction
Bilateral renal ischemia; multiple doses 10 μg/kg at 1 minute, 6 hours and 12 hours into reperfusion, FIG. 7
  creatinine, urea and aspartate aminotransferase (biochemical markers of renal dysfunction): reduction in these biochemical markers of renal dysfunction
Bilateral renal ischemia; single dose 1 μg/kg at 6 hours into reperfusion, 24 hrs of reperfusion, FIG. 6
  creatinine, urea and aspartate aminotransferase (biochemical markers of renal dysfunction): reduction in these biochemical markers of renal dysfunction
Bilateral renal ischemia; single dose 10 μg/kg at 6 hours into reperfusion, 24 hrs of reperfusion, FIG. 6
  creatinine, urea and aspartate aminotransferase (biochemical markers of renal dysfunction): reduction in these biochemical markers of renal dysfunction

## LSEQARNQSEL [Peptide IX, scrambled version of Peptide IC; called Peptide JA in b476, reference compound]
histamine; FIG. 19
  wheal area (lesion area): about 0.6 cm^2
[1]
  number of foot faults in 1 minute period: 20.1±2.1 foot faults

## NAIIKNAYKKG (Beta endorphin derived Peptide IG) [beta endorphin region]
Pressure ulcer
  wound (ulcer) size (area): smallest wound size

## PEG-QEQLERALNSS (XEQLERALNSS; PEG; Peptide IW) [pegylated form of Peptide IC, extended half-life peptide]
histamine; FIG. 18
  wheal area (lesion area): ~0.3 cm^2
9 L gliosarcoma cells
  tumor size (total area of tumor infiltration): marked reduction in tumor size; also recorded: exhibited the best outcomes; also recorded: reduction in size of the tumor equivalent to that achieved by immediate treatment with Peptide ID
9 L gliosarcoma cells; listed as Peptide 1W
  tumor size (total area of tumor infiltration): reduced the size of tumor

## QEQLERALNSS (Helix B amino acids derived Peptide IC) [exterior-presenting amino acids of helix B of EPO]
[2]
  hotplate latency (time to withdraw paw): prevented the appearance of peripheral neuropathy; also recorded: substantially similar to the control group (PBS)
[3]
  volume of urine production (renal function): protected against renal dysfunction due to CDDT; also recorded: substantially like that of the control (PBS) group

## SSNLARELQEQ ([dS][dS][dN][dL][dA][dR][dE][dL][dQ][dE][dQ]; also: retro-inverso) [Peptide IZ, Retro Inverso Peptide IC]
histamine; FIG. 19
  wheal area (lesion area): ~0.4 cm^2 and 0.35 cm^2
